This is an account of results in patent US4010282A, “Anti-arrhythmic agents” (Knoll A.G. Chemische Fabriken, priority 1974, dated 1977).

Data set [1] relates to left auricle of the guinea pig. The data set is described as follows: functional refractory period of the left auricle of the guinea pig using paired electrical stimulation (anti-arrhythmic effect). To be noted: for activation at 100 µM: 10^-^4 Mol/l; for Anti-arrhythmic Effect (Prolongation of the Refractory Period) ED25: dose which lengthens the refractory period by 25 percent, up to 30 minutes after addition to bath liquid; for activation at 10 µM: 10^-^5 Mol/l. The source says:
(§1) Jovier, J. Pharmakol. Exp. Therap. 148, 100-105 (1965). In this experimental arrangement, the numerous anti-arrhythmic agents, of different chemical structure and different therapeutic points of attack in man, heretofore used in therapy are all characterized by a lengthening of the functional refractory period. The method additionally permits determining the effects of the substance on the contractile force of the heart muscle [Reuter and Heeg, Naunyn-Schmiedeberg's Arch. Pharmak. 268, 323-333 (1971) and Zetler and Strubelt, Naunyn-Schmiedeberg's Arch. Pharmak. 271, 335-345 (1971)]. It is, thus, highly suitable for detecting substances having a large therapeutic breadth, i.e., with a large margin of safety between anti-arrhythmically- and negative inotropically-effective doses.
The testing of the substances employed up to 30 individual experiments in each case. For the determination of the effective dose, linear regression functions were calculated [cf. A. Lindner, Statistische Methoden, 3rd Edition, Birkhaeuser Verlag, Basel (1969)], in which the maximum percentage deviations from the starting value in a time period up to 30 minutes after addition of the test substance to the bath liquid was employed.
(§2) In column I of following Table 1, one of the new compounds and known anti-arrhythmic agents are entered. Column II gives the anti-arrhythmic effect. Column III reports the inotropic effect. The therapeutic breadth of the compounds is given in column IV. The ED25 is the effective dose which lengthens the refractory period by 25 percent or lowers the contractile force by 25 percent.

The next data set relates to rats. Briefly: aconitine-induced disturbance of the heart rhythm in rats (electrocardiogram). It is filed as in vivo. To be noted: for ED25 / ED50: Rattus norvegicus. An excerpt: The anti-arrhythmic effect of the diamines could also be confirmed in intact research animals with an experimentally-induced disturbance of the heart rhythm. If rats are continuously infused intravenously with aconitine, severe disturbances in the heartbeat sequence, such as extrasystoles, ventricular tachycardia, and ventricular flutter, which eventually lead to the death of the experimental animal, can be detected in an electrocardiogram. By a pre-treatment with the new pharmaceutical agents, the appearance of these threatening disturbances of the heart rhythm can be hindered or, on continuous administration of aconitine, can be considerably delayed. This experimental model of arrhythmia has already been checked for its evidentiary value using clinically tested standard therapeutic agents and is highly suitable for an experimental animal characterization of anti-arrhythmic agents [cf. Bianchi et al., Arzneim. Forsch. 18, 845-850 (1968); Haas and Busch, Arzneim. Forsch. 18, 401-407 (1968); Haas et al., Arzneim. Forsch. 21, 1392-1399 (1971); Marmo, Naunyn-Schmiedeberg's Arch. Pharmak. 269, 231-247 (1971); and Strubelt et al., Naunyn-Schmiedeberg's Arch. Pharmak. 271, 346-360 (1971)].
The ED25 and ED50 are the intravenous or oral doses in mg/kg that permit a 25 percent or 50 percent increase in the dosage of aconitine administered, versus the aconitine control, until the occurrence of extrasystoles, ventricular tachycardia, and ventricular flutter.

The subject of data set [2] is left auricle of the guinea pig. Briefly: inotropic effect: decrease in contractile force of the heart muscle. To be noted: for Therapeutic Breadth (III/II): ratio ED25 inotropic / ED25 anti-arrhythmic.
Text: as §1, with “148, 100-105 (1965).” left out, “268, 323-333 (1971) and Zetler and Strubelt, Naunyn-Schmiedeberg's Arch.” left out, “271, 335-345 (1971)].” left out
The testing of the substances employed up to 30 individual experiments in each case. For the determination of the effective dose, linear regression functions were calculated [cf.
as §2

[3] abbreviates: Cavia porcellus, read-out: Anti-arrhythmic Effect (% Prolongation of the Refractory Period).
[4] abbreviates: iv, read-out: Ventr. Tachycardia ED25.
Where [5] appears, read: iv, read-out: Ventr. Tachycardia ED50.
The mark [6] stands for this setting: dose which lowers the contractile force by 25 percent, up to 30 minutes after addition to bath liquid.

By ED50 is commonly meant the dose at which the effect has come halfway, by size or by number of responders.

Read-outs that look alike come from different tables or passages of the source.

Regarding `c1ccc(CNCCCNCc2ccccc2)cc1`, in data set [1] (setting [3]), the activation at 100 µM was 47%. In data set [1], the “Anti-arrhythmic Effect (Prolongation of the Refractory Period) ED25” value (“Anti-arrhythmic Effect” for short) is given as 0.054. For the same compound, the ED25 with rats (iv, read-out: Extrasystoles ED25) came out at 5.2 mg/kg; in the data set with rats (iv, read-out: Ventr. Flutter ED25), 4.9 mg/kg; with rats (setting [4]) it was 5.3 mg/kg; in the data set on rats (po, read-out: Extrasystoles ED25) it was 65.8 mg/kg; in the data set with rats (po, read-out: Ventr. Flutter ED25), 51.1 mg/kg; with rats (po, read-out: Ventr. Tachycardia ED25), 55.4 mg/kg. The ED50 in the data set on rats (iv, read-out: Extrasystoles ED50) came out at 6 mg/kg; in the data set with rats (iv, read-out: Ventr. Flutter ED50), 6.4 mg/kg; in the data set with rats (setting [5]), 6.2 mg/kg; in the data set with rats (po, read-out: Extrasystoles ED50) it was 96.2 mg/kg; in the data set with rats (po, read-out: Ventr. Flutter ED50) it was 69.9 mg/kg; in the data set on rats (po, read-out: Ventr. Tachycardia ED50) it was 71.6 mg/kg. Moreover, in the data set on rats (Table 3, parenterally as well as orally), the “effect in aconitine arrhythmia” value was “superior effect”. The “Inotropic Effect (Decrease in Contractile Force) ED25” value in data set [2] (guinea pig) came to 0.141. Further, in data set [2], the “Therapeutic Breadth (III/II)” value was found to be 2.6.

Take `c1ccc(CN(CC2=NCCN2)c2ccccc2)cc1` [Antazoline, antazoline]: the “Anti-arrhythmic Effect” value in data set [1] came out at 0.164. Moreover, the “Inotropic Effect (Decrease in Contractile Force) ED25” value in data set [2] (setting [6]) turned out to be 0.094. In data set [2], the “Therapeutic Breadth (III/II)” value was 0.6.

Regarding `Clc1cccc(CNCCCNCc2cccc(Cl)c2)c1` [N,N'-di-(3'-chlorobenzyl)-propylene-1,3-diamine], the activation at 20 µM in data set [1] (Cavia porcellus, 2 × 10^-^5 Mol/l, read-out: Anti-arrhythmic Effect (% Prolongation of the Refractory Period)) is 45%.

Consider `Clc1ccc(CNCCCNCc2ccc(Cl)cc2)cc1` [N,N'-di-(4'-chlorobenzyl)-1,3-diaminopropane], for which the activation at 10 µM in data set [1] (setting [3]) was determined as 37%.

Regarding `Clc1ccc(CNCCCNCc2ccc(Cl)c(Cl)c2)cc1Cl` [N,N'-di-(m,p-dichlorobenzyl)-propylenediamine], the activation at 10 µM in data set [1] (setting [3]) came out at 26%.

For the compound `COc1ccc(CNCCCNCc2ccc(OC)c(OC)c2)cc1OC` [N,N'-di-(m,p-dimethoxybenzyl)propylenediamine], the activation at 100 µM in data set [1] (setting [3]) stood at 42%.

As for `c1ccc(CNCCNCc2ccccc2)cc1` [N,N'-dibenzyl-ethylenediamine], the activation at 100 µM in data set [1] (setting [3]) was found to be 39%.

On to `CCC[N+]12C(O)C(CC)C3CC1C1N(C)c4ccccc4C14CC2C3C4O` (stereo not drawn) [N,n-propylajmaline, N-propylajmaline], for which the “Anti-arrhythmic Effect” value in data set [1] is listed as 0.0037. Moreover, the “Inotropic Effect (Decrease in Contractile Force) ED25” value in data set [2] (setting [6]) worked out at 0.0015. Moreover, the “Therapeutic Breadth (III/II)” value in data set [2] is reported as 0.4.

As to `C1CCN2C[C@@H]3C[C@@H](CN4CCCC[C@@H]34)[C@H]2C1` [SPARTEINE, reference compound], the ED25 with rats (setting [4]) turned out to be 4.4 mg/kg. Besides, the ED50 in the data set with rats (setting [5]) stood at 9.6 mg/kg.
